Tests used:
[1] = system: Syrian golden hamster; experiment: Hypolipidemic activity in high fat diet fed Syrian golden hamster assessed as reduction of total cholesterol level at 25 mg/kg, po for 7 days; type: functional, Mesocricetus auratus; parameters: scale not given: the % may be the effect or the level left
[2] = system: Syrian golden hamster; experiment: Hypolipidemic activity in high fat diet fed Syrian golden hamster assessed as reduction of glycerol level at 25 mg/kg, po for 7 days; type: functional, Mesocricetus auratus; parameters: scale not given: the % may be the effect or the level left
[3] = system: Syrian golden hamster; experiment: Hypolipidemic activity in high fat diet fed Syrian golden hamster assessed as reduction of triglyceride level at 25 mg/kg, po for 7 days; type: functional, Mesocricetus auratus; parameters: scale not given: the % may be the effect or the level left
[4] = Mean residence time in high fat diet fed Syrian golden hamster at 25 mg/kg, po; type: ADME, organism-based, Mesocricetus auratus; parameters: dose 25 mg/kg, route oral; settings: in vivo
[5] = system: Syrian golden hamster; experiment: Hypolipidemic activity in high fat diet fed Syrian golden hamster assessed as reduction of triglyceride level at 5 mg/kg, po for 7 days; type: functional, Mesocricetus auratus; parameters: scale not given: the % may be the effect or the level left
[6] = system: Syrian golden hamster; experiment: Toxicity in Syrian golden hamster assessed as weight gain at 25 mg/kg, po; type: organism-based, Mesocricetus auratus; parameters: dose 25 mg/kg, route oral; settings: in vivo
[7] = molecular target: T1, 3-hydroxy-3-methylglutaryl-coenzyme A reductase (Homo sapiens, UniProt P04035); experiment: Inhibition of HMG-CoA reductase using HMG-CoA as substrate by spectrophotometry in presence of NADPH
T1 sequence (P04035 whole entry): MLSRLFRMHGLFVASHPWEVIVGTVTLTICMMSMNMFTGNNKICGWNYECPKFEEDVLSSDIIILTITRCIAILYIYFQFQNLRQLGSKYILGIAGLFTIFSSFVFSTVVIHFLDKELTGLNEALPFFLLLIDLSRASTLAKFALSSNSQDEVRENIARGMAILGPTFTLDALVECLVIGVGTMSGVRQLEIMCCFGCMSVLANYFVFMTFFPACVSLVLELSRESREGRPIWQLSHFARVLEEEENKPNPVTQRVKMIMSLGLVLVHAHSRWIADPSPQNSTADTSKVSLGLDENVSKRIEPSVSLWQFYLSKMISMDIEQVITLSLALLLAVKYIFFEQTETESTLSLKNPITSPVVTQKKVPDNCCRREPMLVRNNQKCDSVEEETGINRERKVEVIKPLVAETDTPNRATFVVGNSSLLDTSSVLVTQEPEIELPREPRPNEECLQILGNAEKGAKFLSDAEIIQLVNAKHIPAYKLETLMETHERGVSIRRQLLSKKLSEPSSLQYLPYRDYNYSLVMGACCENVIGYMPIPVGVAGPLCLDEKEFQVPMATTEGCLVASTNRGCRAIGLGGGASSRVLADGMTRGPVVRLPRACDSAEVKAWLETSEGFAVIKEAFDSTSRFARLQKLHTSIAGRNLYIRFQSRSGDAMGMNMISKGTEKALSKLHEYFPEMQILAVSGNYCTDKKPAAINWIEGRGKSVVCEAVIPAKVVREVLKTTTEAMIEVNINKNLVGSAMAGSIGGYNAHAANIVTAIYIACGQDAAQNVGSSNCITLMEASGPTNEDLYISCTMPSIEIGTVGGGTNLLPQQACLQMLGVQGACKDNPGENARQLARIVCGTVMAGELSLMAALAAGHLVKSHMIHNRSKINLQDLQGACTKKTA

[8] = system: Syrian golden hamster; experiment: Hypolipidemic activity in high fat diet fed Syrian golden hamster assessed as increase in HDL-cholesterol-total cholesterol ratio at 50 mg/kg, po for 7 days; type: functional, Mesocricetus auratus
[9] = system: Syrian golden hamster; experiment: Hypolipidemic activity in high fat diet fed Syrian golden hamster assessed as increase in HDL-cholesterol-total cholesterol ratio at 10 mg/kg, po for 7 days; type: functional, Mesocricetus auratus
[10] = system: Syrian golden hamster; experiment: Hypolipidemic activity in high fat diet fed Syrian golden hamster assessed as increase in HDL-cholesterol-total cholesterol ratio at 5 mg/kg, po for 7 days; type: functional, Mesocricetus auratus
[11] = system: Syrian golden hamster; experiment: Hypolipidemic activity in high fat diet fed Syrian golden hamster assessed as increase in HDL-cholesterol-total cholesterol ratio at 25 mg/kg, po for 7 days; type: functional, Mesocricetus auratus
[12] = Cmax in high fat diet fed Syrian golden hamster at 25 mg/kg, po; type: ADME, organism-based, Mesocricetus auratus; parameters: dose 25 mg/kg, route oral; settings: in vivo
[13] = system: Syrian golden hamster; experiment: Hypolipidemic activity in high fat diet fed Syrian golden hamster assessed as reduction of triglyceride level at 100 mg/kg, po for 7 days; type: functional, Mesocricetus auratus; parameters: scale not given: the % may be the effect or the level left
[14] = system: Syrian golden hamster; experiment: Toxicity in Syrian golden hamster assessed as effect of food intake at 25 mg/kg, po; type: organism-based, Mesocricetus auratus; parameters: dose 25 mg/kg, route oral; settings: in vivo
[15] = AUC (0 to t) in high fat diet fed Syrian golden hamster at 25 mg/kg, po; type: ADME, organism-based, Mesocricetus auratus; parameters: dose 25 mg/kg, route oral; settings: plasma
[16] = system: Syrian golden hamster; experiment: Hypolipidemic activity in high fat diet fed Syrian golden hamster assessed as reduction of triglyceride level at 50 mg/kg, po for 7 days; type: functional, Mesocricetus auratus; parameters: scale not given: the % may be the effect or the level left
[17] = system: Syrian golden hamster; experiment: Apparent volume of distribution in high fat diet fed Syrian golden hamster at 25 mg/kg, po; type: ADME, organism-based, Mesocricetus auratus; parameters: dose 25 mg/kg, route oral; settings: in vivo
[18] = system: Syrian golden hamster; experiment: Hypolipidemic activity in high fat diet fed Syrian golden hamster assessed as reduction of total cholesterol level at 5 mg/kg, po for 7 days; type: functional, Mesocricetus auratus; parameters: scale not given: the % may be the effect or the level left
[19] = Tmax in high fat diet fed Syrian golden hamster at 25 mg/kg, po; type: ADME, organism-based, Mesocricetus auratus; parameters: dose 25 mg/kg, route oral; settings: in vivo
[20] = system: Syrian golden hamster; experiment: Hypolipidemic activity in high fat diet fed Syrian golden hamster assessed as reduction of glycerol level at 100 mg/kg, po for 7 days; type: functional, Mesocricetus auratus; parameters: scale not given: the % may be the effect or the level left
[21] = system: Syrian golden hamster; experiment: Hypolipidemic activity in high fat diet fed Syrian golden hamster assessed as reduction of total cholesterol level at 50 mg/kg, po for 7 days; type: functional, Mesocricetus auratus; parameters: scale not given: the % may be the effect or the level left
[22] = system: Syrian golden hamster; experiment: Hypolipidemic activity in high fat diet fed Syrian golden hamster assessed as reduction of total cholesterol level at 100 mg/kg, po for 7 days; type: functional, Mesocricetus auratus; parameters: scale not given: the % may be the effect or the level left
[23] = system: Syrian golden hamster; experiment: Hypolipidemic activity in high fat diet fed Syrian golden hamster assessed as reduction of glycerol level at 5 mg/kg, po for 7 days; type: functional, Mesocricetus auratus; parameters: scale not given: the % may be the effect or the level left
[24] = Apparent oral clearance in high fat diet fed Syrian golden hamster at 25 mg/kg, po; type: ADME, organism-based, Mesocricetus auratus; parameters: dose 25 mg/kg, route oral; settings: in vivo
[25] = system: Syrian golden hamster; experiment: Hypolipidemic activity in high fat diet fed Syrian golden hamster assessed as increase in HDL-cholesterol-total cholesterol ratio at 100 mg/kg, po for 7 days; type: functional, Mesocricetus auratus
[26] = system: Syrian golden hamster; experiment: Hypolipidemic activity in high fat diet fed Syrian golden hamster assessed as reduction of triglyceride level at 10 mg/kg, po for 7 days; type: functional, Mesocricetus auratus; parameters: scale not given: the % may be the effect or the level left
[27] = system: Syrian golden hamster; experiment: Hypolipidemic activity in high fat diet fed Syrian golden hamster assessed as reduction of glycerol level at 10 mg/kg, po for 7 days; type: functional, Mesocricetus auratus; parameters: scale not given: the % may be the effect or the level left
[28] = system: Syrian golden hamster; experiment: Hypolipidemic activity in high fat diet fed Syrian golden hamster assessed as reduction of total cholesterol level at 10 mg/kg, po for 7 days; type: functional, Mesocricetus auratus; parameters: scale not given: the % may be the effect or the level left
[29] = system: Syrian golden hamster; experiment: Hypolipidemic activity in high fat diet fed Syrian golden hamster assessed as reduction of glycerol level at 50 mg/kg, po for 7 days; type: functional, Mesocricetus auratus; parameters: scale not given: the % may be the effect or the level left

In the case of `CC[C@H](C)C(=O)O[C@H]1C[C@@H](C)C=C2C=C[C@H](C)[C@H](CC[C@@H]3C[C@@H](O)CC(=O)O3)[C@H]21` [LOVASTATIN], the Activity [1] is reported as 9%, the Activity [2] is reported as 35% and the Activity [3] is reported as 29%.
With `CC1=CCC[C@@H]2[C@@](C)(CCC3=CC(=O)O[C@@H]3O)[C@H](C)CC[C@@]12C` the MRT [4] was 4.52 h, the Activity [5] was 19% and the Activity [6] was “Non-toxic”. The IC50 [7] was 30.2 µM, the Ratio [8] was 54 and the Ratio [9] was 12. For the same compound, the Ratio [10] was 12, the Ratio [11] was 48 and the Cmax [12] was 2490 ng/mL. For the same compound, the Activity [13] was 43%, the Activity [14] was “Non-toxic” and the Activity [1] was 41%. For the same compound, the AUC(0-t) [15] was 5740 ng·h/mL, the Activity [16] was 46% and the Vz [17] was 17.78 L/kg. It also gave an Activity [18] of 27%, a Tmax [19] of 0.5 h and an Activity [20] of 43%. The Activity [21] was 55%, the Activity [22] was 54% and the Activity [2] was 37%. The Activity [23] was 10%, the CL/F [24] was 72.5 mL/min/kg and the Activity [3] was 45%. For the same compound, the Ratio [25] was 46, the Activity [26] was 26% and the Activity [27] was 5%. For the same compound, the Activity [28] was 23% and the Activity [29] was 48%.
For `CC1=CCC[C@@H]2[C@@](C)(CC/C(C=O)=C\C(=O)O)[C@H](C)CC[C@@]12C`, the Activity [6] was “Non-toxic” and the Activity [14] was “Non-toxic”.
In the case of `CC1=C(C=O)CC2[C@@]1(C)CC[C@@H](C)[C@]2(C)CCC1=CC(=O)O[C@@H]1O` (mixture of isomers), the Activity [6] is reported as “Non-toxic” and the Activity [14] is reported as “Non-toxic”.
In the case of `C=C1[C@@H](O)CC[C@@H]2[C@@](C)(CCC3=CC(=O)O[C@@H]3O)[C@H](C)CC[C@@]12C`, the Activity [6] is reported as “Non-toxic” and the Activity [14] is reported as “Non-toxic”.

Source: ChEMBL document CHEMBL1828614, “Discovery of a new class of HMG-CoA reductase inhibitor from Polyalthia longifolia as potential lipid lowering agent” (Eur J Med Chem, 2011)
